Where two headings read alike, the source gives them in different places. Values belong to the molecule of their own block, whether it stands above or below them.
What was measured:
Balb/C mice [1] = settings: Al-Abed et al., 2005; cited from earlier work
LPS-treated macrophages = settings: cited from earlier work
MIF [2] = target: T1, MIF (Homo sapiens, UniProt P14174); assay: Spectrophotometric assay of MIF tautomerase activity on L-dopachrome methyl ester; format: biochemical
T1 sequence (P14174 2-115 limits assumed): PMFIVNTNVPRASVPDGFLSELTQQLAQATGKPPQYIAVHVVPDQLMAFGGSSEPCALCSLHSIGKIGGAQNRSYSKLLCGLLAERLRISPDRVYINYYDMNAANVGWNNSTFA
Experimental: The inhibitors 3-15 were dissolved in DMSO at various concentrations (0.1-100 μM) and 1 μL was added to the cuvette with the MIF prior to the addition of the dopachrome.
The inhibitors were dissolved in DMSO at various concentrations (0.1-100 mM) and added to the cuvette with the MIF prior to the addition of the dopachrome.

Balb/C mice [3] = assay: Cecal ligation and puncture (CLP) sepsis model, survival; format: in vivo; settings: 4 mg/kg intraperitoneal, initiated 24 h after CLP, continued for 3 days; control 28%
Experimental: FIG. 4 is a graph of experimental results showing that the hydrazone compound 7 is protective after 24 h late treatment in a CLP model. Mice were injected intraperitoneally with compound 7 (“hydrazone”) (4 mg/kg) (n=13, p<0.01) or vehicle 24 h after CLP (n=13). A single injection was composed of 100 μg of Compound 7 (equivalent to 4 mg/kg) in 200 μL of 20% DMSO: 80% saline solution. Additional administrations of compound 7 (bi-daily) were given on days 2 and 3.
All animal experiments were approved by the Institutional Animal Care and Use Committee of the North Shore-Long Island Jewish Research Institute. Male Balb/C mice, ˜8 weeks old, were subjected to cecal ligation and puncture. Details of the CLP procedure has been carried out as follows: In anesthetized male Balb/C mice (ketamine 100 mg/kg and xylazine 8 mg/kg administered intramuscularly) the cecum was ligated and given a single puncture. Abdominal access was gained via a midline incision. The cecum was isolated and ligated with a 6-0 silk ligature below the ileocecal valve, and the cecum punctured once with a 22 G needle, stool (approximately 1 mm) extruded from the hole, and the cecum placed back into the abdominal cavity. The abdomen was closed with two layers of 6-0 Ethilon sutures. […] Animal survival was monitored for 14 days. […]

Swiss Webster male mice = assay: Carrageenan air pouch model, leukocyte recruitment; format: in vivo; settings: oral administration; assessed by inhibition of leukocyte infiltration
Experimental: Air pouches were made according to standard procedures (Garcia-Ramallo et al., 2002) on Swiss Webster male mice (25-30 g) by injecting sterile air s.c. on day 0 (6 ml) and day 3 (3 ml). On day 6, animals were treated with vehicle (350 μl of 20% DMSO) or compound 7 (7 mg/kg) either intraperitoneal (i.p.) or gavage (oral) as indicated. After 15 min, the animals were challenged by injecting 1 ml 1% carrageenan (in PBS) into the air pouch cavity. Five hrs after carrageenan injection the animals were sacrificed, the pouches washed with PBS, exudate collected, and the total number of infiltrating cells quantitated.
In another experiment, air pouches were made as above. On day 6, animals were treated with vehicle (350 μl of 20% DMSO) or compound 7 (7 mg/kg, gavage) at the indicated times prior to sacrificing and cell harvesting. In all cases, 1% carrageenan was injected into the air pouch cavity 5 hrs before sacrificing.

MIF [4] = target: T1, MIF; settings: previously shown (Dios et al., 2002); read-out: IC50, L-amino acid Schiff bases, MIF tautomerase; cited from earlier work
[5] = Table 1, L-dopachrome methyl ester substrate, read-out: IC50 for inhibition of MIF tautomerase activity
[6] = read-out: IC50, MIF tautomerase activity
[7] = read-out: IC50, MIF tautomerase

Structure (SMILES): COC(=O)CC1CC(c2ccc(O)cc2)=NO1 (stereo not drawn) [Compound 2, ISO-1]
survival in septic mice (Balb/C mice [1]): significantly improves survival | inhibition of LPS-induced TNF release (LPS-treated macrophages; MIF null macrophages): not | inhibition of LPS-induced TNF release (LPS-treated macrophages; wild-type macrophages): dose-dependently inhibits

Structure (SMILES): NN=Cc1ccc(O)cc1 [Compound 3]
IC50 (MIF [2]; [5]): > 500000 nM | IC50 (MIF [2]; [6]): > 500000 nM | melting point: 248 to 250 °C

Structure (SMILES): CNN=Cc1ccc(O)cc1 [Compound 4]
IC50 (MIF [2]; [6]): 43000 nM | melting point: 58 to 60 °C

Structure (SMILES): Oc1ccc(C=NNc2ccccc2)cc1 [Compound 5]
IC50 (MIF [2]; [6]): 2600 nM | melting point: 154 to 156 °C

Structure (SMILES): COc1ccc(NN=Cc2ccc(O)cc2)cc1 [Compound 6]
IC50 (MIF [2]; [5]): 480 nM

Structure (SMILES): COc1ccc(NN=Cc2ccc(O)c(F)c2)cc1 [Compound 7]
IC50 (MIF [2]; [7]): 130 nM | survival rate (Balb/C mice [3]): 65% | apparent biological half-life (Swiss Webster male mice): 7-9 hours

Structure (SMILES): COc1ccc(NN=Cc2ccc(O)c(Cl)c2)cc1 [Compound 8]
IC50 (MIF [2]; [7]): 220 nM | melting point: 108 to 110 °C

Structure (SMILES): N[C@@H](Cc1ccccc1)C(=O)O [L-phenylalanine]
IC50 (MIF [4]): 50000 nM

Structure (SMILES): N[C@@H](Cc1ccc(O)cc1)C(=O)O [L-tyrosine]
IC50 (MIF [4]): 10000 nM

Other lines, results leading:

IC50 (MIF [2]; [7]): 330 nM | melting point: 135 to 137 °C
Structure (SMILES): COc1ccc(NN=Cc2ccc(O)c(Br)c2)cc1 [Compound 9]

IC50 (MIF [2]; [6]): 300000 nM | melting point: 93 to 95 °C
Structure (SMILES): CN(N=Cc1ccc(O)cc1)c1ccccc1 [Compound 10]

melting point: 189 to 190 °C
Structure (SMILES): CCOC(=O)NN=Cc1ccc(O)cc1 [Compound 12]

melting point: 155 to 156 °C
Structure (SMILES): CC(C)(C)OC(=O)NN=Cc1ccc(O)cc1 [Compound 13]

melting point: 159 to 160 °C
Structure (SMILES): O=C(NN=Cc1ccc(O)cc1)OCc1ccccc1 [Compound 14]

melting point: 147 to 148 °C
Structure (SMILES): COc1ccc(COC(=O)NN=Cc2ccc(O)cc2)cc1 [Compound 15]

IC50 (MIF [2]; Table 2, hydrazone carbamates, L-dopachrome methyl ester substrate, read-out: IC50 for inhibition of MIF tautomerase activity): 2400 nM
Structure (SMILES): CC(C)(C)OC(=O)NN=Cc1ccc(O)c(F)c1 [Compound 18]

— patent US8742173B2, “Phenolic hydrazone macrophage migration inhibitory factor inhibitors” (The Feinstein Institute for Medical Research, priority 2006, dated 2014)
